In article PMC7026418, “The kinase polypharmacology landscape of clinical PARP inhibitors” (Scientific Reports, 2020):
Like-named read-outs stand apart in the source and are kept apart here. Blank lines part the entries; values can stand above or below the molecule they belong to.

Columns and labels:
Assay in all cases: biochemical
[1] = molecular target: CIT (Homo sapiens, UniProt O14578); set-up: Reaction Biology HotSpot radiometric 33P-ATP catalytic assay at Km ATP; percent inhibition versus DMSO, mean n=2; details: Km ATP
Text: (§1) Unreacted phosphate is removed via washing the filters.

[2] = molecular target: CSNK2A1 (Homo sapiens, UniProt P68400); set-up: Reaction Biology HotSpot radiometric 33P-ATP catalytic assay at Km ATP; percent inhibition versus DMSO, mean n=2; details: Km ATP
Text: as §1

[3] = molecular target: CSNK2A2 (Homo sapiens, UniProt P19784); set-up: Reaction Biology HotSpot radiometric 33P-ATP catalytic assay at Km ATP; percent inhibition versus DMSO, mean n=2; details: Km ATP
Text: as §1

[4] = molecular target: HIPK2 (Homo sapiens, UniProt Q9H2X6); set-up: Reaction Biology HotSpot radiometric 33P-ATP catalytic assay at Km ATP; percent inhibition versus DMSO, mean n=2; details: Km ATP
Text: as §1

[5] = molecular target: HIPK3 (Homo sapiens, UniProt Q9H422); set-up: Reaction Biology HotSpot radiometric 33P-ATP catalytic assay at Km ATP; percent inhibition versus DMSO, mean n=2; details: Km ATP
Text: as §1

[6] = molecular target: T1, ABL1(F317I)-nonphosphorylated (Homo sapiens, UniProt P00519, F317I); set-up: DiscoveRx KINOMEscan active site-directed competition binding; percent of control kinase bound to immobilised ligand
T1 construct: nonphosphorylated
T1 sequence (P00519 whole entry F317I): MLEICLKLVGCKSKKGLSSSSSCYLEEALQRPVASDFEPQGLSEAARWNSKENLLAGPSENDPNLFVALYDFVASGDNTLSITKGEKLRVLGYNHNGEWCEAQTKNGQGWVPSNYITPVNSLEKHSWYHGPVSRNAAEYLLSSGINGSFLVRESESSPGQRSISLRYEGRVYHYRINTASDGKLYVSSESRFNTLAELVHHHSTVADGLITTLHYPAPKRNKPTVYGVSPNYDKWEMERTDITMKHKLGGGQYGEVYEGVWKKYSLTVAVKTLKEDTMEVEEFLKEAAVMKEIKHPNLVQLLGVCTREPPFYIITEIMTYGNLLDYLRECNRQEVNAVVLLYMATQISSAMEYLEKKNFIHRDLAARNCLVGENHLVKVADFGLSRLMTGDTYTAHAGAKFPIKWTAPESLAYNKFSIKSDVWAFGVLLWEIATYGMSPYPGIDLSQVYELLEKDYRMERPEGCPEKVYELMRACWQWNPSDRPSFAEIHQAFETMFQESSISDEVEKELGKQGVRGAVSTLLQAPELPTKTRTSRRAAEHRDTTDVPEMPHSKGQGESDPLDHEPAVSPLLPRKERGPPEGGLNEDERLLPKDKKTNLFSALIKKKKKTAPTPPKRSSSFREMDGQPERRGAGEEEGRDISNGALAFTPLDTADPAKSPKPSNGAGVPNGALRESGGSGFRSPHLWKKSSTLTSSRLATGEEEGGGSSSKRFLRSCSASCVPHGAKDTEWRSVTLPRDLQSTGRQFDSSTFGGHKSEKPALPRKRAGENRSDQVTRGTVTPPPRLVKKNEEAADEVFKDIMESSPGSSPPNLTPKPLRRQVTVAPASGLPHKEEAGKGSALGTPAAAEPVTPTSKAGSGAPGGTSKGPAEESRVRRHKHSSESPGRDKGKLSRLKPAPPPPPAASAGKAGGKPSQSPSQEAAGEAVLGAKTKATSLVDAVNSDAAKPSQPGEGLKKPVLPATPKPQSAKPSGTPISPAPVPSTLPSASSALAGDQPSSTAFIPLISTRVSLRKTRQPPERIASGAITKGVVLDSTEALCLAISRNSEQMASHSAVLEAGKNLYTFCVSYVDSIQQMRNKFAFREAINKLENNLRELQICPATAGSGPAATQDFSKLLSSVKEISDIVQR

[7] = molecular target: ALK (Homo sapiens, UniProt Q9UM73); set-up: DiscoveRx KINOMEscan active site-directed competition binding; percent of control kinase bound to immobilised ligand
Chain of ALK (Q9UM73 whole entry): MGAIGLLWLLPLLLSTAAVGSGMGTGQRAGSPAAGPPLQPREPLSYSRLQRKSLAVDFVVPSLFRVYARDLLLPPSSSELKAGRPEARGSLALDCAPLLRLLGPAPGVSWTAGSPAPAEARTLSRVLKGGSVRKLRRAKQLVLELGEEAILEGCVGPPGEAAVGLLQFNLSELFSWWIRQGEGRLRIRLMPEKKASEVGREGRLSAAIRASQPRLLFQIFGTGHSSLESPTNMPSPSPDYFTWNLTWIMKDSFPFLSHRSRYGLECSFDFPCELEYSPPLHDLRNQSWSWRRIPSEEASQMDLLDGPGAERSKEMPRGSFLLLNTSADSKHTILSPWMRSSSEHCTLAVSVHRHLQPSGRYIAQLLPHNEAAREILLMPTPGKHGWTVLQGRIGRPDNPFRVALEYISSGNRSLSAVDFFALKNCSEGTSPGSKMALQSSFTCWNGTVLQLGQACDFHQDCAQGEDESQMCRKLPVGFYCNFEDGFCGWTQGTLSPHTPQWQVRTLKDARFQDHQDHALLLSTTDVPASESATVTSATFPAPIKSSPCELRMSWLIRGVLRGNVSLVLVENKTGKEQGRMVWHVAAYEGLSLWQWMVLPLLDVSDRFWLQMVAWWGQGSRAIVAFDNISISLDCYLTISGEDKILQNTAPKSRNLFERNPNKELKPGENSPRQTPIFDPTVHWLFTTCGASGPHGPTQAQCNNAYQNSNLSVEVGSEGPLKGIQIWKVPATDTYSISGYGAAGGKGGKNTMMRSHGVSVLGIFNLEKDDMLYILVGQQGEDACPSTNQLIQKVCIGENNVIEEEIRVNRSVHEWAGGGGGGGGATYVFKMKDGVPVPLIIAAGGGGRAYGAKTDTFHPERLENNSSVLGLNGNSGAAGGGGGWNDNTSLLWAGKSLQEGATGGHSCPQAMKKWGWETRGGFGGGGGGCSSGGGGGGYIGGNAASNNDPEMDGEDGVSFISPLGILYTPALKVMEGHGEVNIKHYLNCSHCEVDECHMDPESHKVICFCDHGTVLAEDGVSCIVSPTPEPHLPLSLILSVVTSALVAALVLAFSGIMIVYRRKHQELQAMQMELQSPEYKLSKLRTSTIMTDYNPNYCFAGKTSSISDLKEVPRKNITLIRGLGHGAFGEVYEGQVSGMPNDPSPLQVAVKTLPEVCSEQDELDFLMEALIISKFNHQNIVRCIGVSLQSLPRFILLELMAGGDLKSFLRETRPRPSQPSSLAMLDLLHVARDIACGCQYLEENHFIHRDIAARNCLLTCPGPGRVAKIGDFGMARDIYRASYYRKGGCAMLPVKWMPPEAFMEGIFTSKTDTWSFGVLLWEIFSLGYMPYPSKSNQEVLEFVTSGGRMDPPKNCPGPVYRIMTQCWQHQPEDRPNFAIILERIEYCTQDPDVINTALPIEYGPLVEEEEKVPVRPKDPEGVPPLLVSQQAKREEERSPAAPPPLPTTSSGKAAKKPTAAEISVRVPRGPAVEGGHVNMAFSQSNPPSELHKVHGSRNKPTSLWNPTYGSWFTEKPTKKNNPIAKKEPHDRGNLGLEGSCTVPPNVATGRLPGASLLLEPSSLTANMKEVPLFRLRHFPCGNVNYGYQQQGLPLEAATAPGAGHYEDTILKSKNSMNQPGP

[8] = molecular target: T2, SNRK (Homo sapiens, UniProt Q9NRH2); set-up: DiscoveRx KINOMEscan active site-directed competition binding; percent of control kinase bound to immobilised ligand
T2 sequence (Q9NRH2 1-765): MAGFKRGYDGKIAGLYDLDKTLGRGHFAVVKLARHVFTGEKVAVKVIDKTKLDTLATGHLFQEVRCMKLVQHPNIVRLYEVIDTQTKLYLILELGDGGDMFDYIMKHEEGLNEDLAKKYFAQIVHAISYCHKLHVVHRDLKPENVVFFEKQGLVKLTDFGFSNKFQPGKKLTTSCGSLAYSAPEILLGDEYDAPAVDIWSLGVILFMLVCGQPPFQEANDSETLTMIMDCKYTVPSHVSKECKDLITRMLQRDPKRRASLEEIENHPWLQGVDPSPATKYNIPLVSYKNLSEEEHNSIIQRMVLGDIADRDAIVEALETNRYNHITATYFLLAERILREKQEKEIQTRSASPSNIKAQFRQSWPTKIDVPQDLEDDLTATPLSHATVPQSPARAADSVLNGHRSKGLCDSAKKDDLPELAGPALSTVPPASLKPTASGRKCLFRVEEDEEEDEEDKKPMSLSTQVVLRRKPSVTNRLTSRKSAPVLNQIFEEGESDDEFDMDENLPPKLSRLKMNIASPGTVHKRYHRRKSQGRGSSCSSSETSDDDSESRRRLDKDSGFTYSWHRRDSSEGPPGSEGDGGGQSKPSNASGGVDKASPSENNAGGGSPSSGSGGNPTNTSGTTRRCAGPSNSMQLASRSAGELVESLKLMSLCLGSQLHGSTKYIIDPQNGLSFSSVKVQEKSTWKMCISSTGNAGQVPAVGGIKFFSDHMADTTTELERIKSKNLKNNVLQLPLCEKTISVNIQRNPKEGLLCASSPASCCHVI

[9] = molecular target: DYRK1B (Homo sapiens, UniProt Q9Y463); set-up: DiscoveRx KINOMEscan active site-directed competition binding; percent of control kinase bound to immobilised ligand; details: for remaining binding at 10 µM: binding competition, % of control
Chain of DYRK1B (Q9Y463 whole entry): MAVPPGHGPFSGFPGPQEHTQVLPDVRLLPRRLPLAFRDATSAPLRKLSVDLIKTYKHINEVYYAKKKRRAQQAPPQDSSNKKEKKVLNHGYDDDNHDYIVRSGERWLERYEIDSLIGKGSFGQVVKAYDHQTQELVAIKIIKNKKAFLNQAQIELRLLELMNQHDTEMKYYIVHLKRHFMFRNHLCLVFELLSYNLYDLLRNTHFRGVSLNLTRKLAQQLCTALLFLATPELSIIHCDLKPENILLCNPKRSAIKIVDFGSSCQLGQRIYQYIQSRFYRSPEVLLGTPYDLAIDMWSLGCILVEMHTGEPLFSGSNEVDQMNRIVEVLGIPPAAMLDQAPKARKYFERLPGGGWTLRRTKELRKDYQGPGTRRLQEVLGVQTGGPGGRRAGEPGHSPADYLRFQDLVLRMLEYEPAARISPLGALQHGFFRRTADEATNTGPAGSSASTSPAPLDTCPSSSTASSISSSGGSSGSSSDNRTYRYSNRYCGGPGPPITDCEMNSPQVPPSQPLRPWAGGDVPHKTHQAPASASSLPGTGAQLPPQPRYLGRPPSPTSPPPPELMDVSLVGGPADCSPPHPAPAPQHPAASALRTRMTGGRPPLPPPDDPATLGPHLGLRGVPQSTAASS
Experimental: (§2) The DiscoveRx KinomeScan platform (https://www.discoverx.com), utilizing an in vitro active site-directed competition binding assay, was used to quantitatively measure interactions between the four clinical PARP inhibitors and their largest available kinase panel. At the time when the assays were performed (date: 29/11/2016), 468 in vitro binding assays were available, corresponding to 392 unique human kinases (76% of the human kinome)[39] (Supplementary Table 5). To follow up the computational analysis, we performed a comprehensive in vitro kinome screen. To do this we employed the DiscoveRx (https://www.discoverx.com) KinomeScan in vitro binding technology[37],[38] that has been widely used for kinome profiling in drug discovery. At the time of conducting our screen, this kinome panel was the largest commercially available and comprised 468 in vitro binding assays corresponding to 392 unique human kinases (76% of the human kinome)[39] (Supplementary Table 5). Also included were assays comprising mutated, deleted, phosphorylated or autoinhibited forms of proteins (n = 63), secondary or pseudokinase domains (n = 8), non-human isoforms (n = 3) and CDK complexes with different cyclins (n = 2) (Supplementary Table 5). The assays were performed at a single relatively high concentration of 10 μM to identify initially both low and high potency off-targets. The results of our use of the in vitro binding assay for kinome profiling reveal marked differences between the kinase polypharmacology of PARP inhibitors. […] The binding technology used involves a competition assay, defining activity as ≥65% of the kinase being competed off an immobilised ligand at 10 μM[38].

[10] = molecular target: LTK (Homo sapiens, UniProt P29376); set-up: DiscoveRx KINOMEscan active site-directed competition binding; percent of control kinase bound to immobilised ligand; details: for remaining binding at 10 µM: binding competition, % of control
Chain of LTK (P29376 whole entry): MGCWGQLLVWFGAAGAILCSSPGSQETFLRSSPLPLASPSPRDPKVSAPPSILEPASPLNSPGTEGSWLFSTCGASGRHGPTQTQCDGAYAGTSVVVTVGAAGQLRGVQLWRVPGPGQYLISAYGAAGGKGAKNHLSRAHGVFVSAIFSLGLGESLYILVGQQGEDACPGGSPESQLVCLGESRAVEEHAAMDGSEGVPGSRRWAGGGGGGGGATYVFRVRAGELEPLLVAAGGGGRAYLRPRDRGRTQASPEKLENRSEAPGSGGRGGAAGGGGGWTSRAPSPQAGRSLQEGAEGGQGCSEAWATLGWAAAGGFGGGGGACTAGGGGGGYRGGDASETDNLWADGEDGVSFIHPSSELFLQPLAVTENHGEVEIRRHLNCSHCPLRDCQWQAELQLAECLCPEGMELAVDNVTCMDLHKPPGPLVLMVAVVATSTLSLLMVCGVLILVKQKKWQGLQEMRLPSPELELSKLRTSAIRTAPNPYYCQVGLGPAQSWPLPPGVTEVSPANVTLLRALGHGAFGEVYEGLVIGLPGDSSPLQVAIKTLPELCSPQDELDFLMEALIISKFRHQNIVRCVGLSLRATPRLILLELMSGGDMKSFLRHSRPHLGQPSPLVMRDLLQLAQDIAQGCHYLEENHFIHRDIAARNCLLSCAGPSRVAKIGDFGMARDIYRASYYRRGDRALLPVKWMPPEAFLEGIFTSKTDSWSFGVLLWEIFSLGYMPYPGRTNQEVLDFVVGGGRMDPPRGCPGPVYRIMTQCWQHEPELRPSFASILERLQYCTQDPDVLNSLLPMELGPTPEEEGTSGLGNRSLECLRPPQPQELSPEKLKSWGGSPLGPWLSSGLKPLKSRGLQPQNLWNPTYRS
Experimental: as §2

[11] = molecular target: CDK4-cyclinD3 (Homo sapiens, UniProt P11802); set-up: cyclinD3; DiscoveRx KINOMEscan active site-directed competition binding; percent of control kinase bound to immobilised ligand
[12] = molecular target: STK33 (Homo sapiens, UniProt Q9BYT3); set-up: DiscoveRx KINOMEscan active site-directed competition binding; percent of control kinase bound to immobilised ligand; details: for remaining binding at 10 µM: binding competition, % of control
Chain of STK33 (Q9BYT3 whole entry): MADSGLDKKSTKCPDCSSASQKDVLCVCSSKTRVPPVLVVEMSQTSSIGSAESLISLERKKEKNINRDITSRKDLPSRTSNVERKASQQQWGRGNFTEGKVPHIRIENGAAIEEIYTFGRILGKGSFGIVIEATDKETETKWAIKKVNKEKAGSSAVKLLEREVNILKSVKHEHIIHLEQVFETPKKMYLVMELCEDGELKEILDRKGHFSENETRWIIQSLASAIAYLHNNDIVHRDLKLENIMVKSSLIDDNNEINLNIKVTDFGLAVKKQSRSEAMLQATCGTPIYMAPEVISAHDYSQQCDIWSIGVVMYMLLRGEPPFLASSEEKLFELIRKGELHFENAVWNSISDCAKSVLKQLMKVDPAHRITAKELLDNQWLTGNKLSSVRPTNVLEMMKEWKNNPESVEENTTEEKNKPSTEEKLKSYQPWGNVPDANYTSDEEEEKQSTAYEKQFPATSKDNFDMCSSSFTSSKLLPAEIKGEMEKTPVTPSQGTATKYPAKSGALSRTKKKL
Experimental: as §2

[13] = read-out: Niraparib (MK-4827) / %Ctrl @ 10000nM
[14] = read-out: Niraparib (MK-4827) / %Ctrl @ 10000nM, binding competition
[15] = read-out: Rucaparib / %Ctrl @ 10000nM, binding competition, % of control
[16] = read-out: Rucaparib / %Ctrl @ 10000nM, binding competition
[17] = read-out: Olaparib / %Ctrl @ 10000nM
[18] = read-out: Talazoparib (BMN 673) / %Ctrl @ 10000nM

Compound: NC(=O)c1cccc2cn(-c3ccc([C@@H]4CCCNC4)cc3)nc12 [Niraparib]
inhibition at 1 µM [1]: 10% | inhibition at 1 µM [2]: 12% | inhibition at 1 µM [3]: -1% | inhibition at 1 µM [4]: 23% | inhibition at 1 µM [5]: 5% | percent of control binding at 10 µM [6, 13]: 86% | percent of control binding at 10 µM [7, 13]: 98% | percent of control binding at 10 µM [8, 13]: 100% | percent of control kinase binding at 10 µM [9, 14]: 0% | percent of control kinase binding at 10 µM [10, 14]: 71% | percent of control binding at 10 µM [11, 13]: 38%

inhibition at 1 µM [1]: 15% | inhibition at 1 µM [2]: 21% | inhibition at 1 µM [3]: 17% | inhibition at 1 µM [4]: -6% | inhibition at 1 µM [5]: -12% | percent of control binding at 10 µM [6, 15]: 71% | percent of control binding at 10 µM [7, 15]: 45% | percent of control binding at 10 µM [8, 15]: 80% | percent of control kinase binding at 10 µM [9, 16]: 5.7% | percent of control kinase binding at 10 µM [10, 16]: 89% | percent of control kinase binding at 10 µM [12, 16]: 89% | percent of control binding at 10 µM [11, 15]: 12%
Compound: CNCc1ccc(-c2[nH]c3cc(F)cc4c3c2CCNC4=O)cc1 [Rucaparib]

percent of control binding at 10 µM [6, 17]: 66% | percent of control binding at 10 µM [7, 17]: 86% | percent of control binding at 10 µM [8, 17]: 96% | remaining binding at 10 µM [9, 17]: 97% | remaining binding at 10 µM [10, 17]: 93% | remaining binding at 10 µM [12, 17]: 100% | percent of control binding at 10 µM [11, 17]: 95%
Compound: O=C(c1cc(Cc2n[nH]c(=O)c3ccccc23)ccc1F)N1CCN(C(=O)C2CC2)CC1 [Olaparib]

percent of control binding at 10 µM [6, 18]: 96% | percent of control binding at 10 µM [7, 18]: 100% | percent of control binding at 10 µM [8, 18]: 100% | remaining binding at 10 µM [9, 18]: 95% | remaining binding at 10 µM [10, 18]: 91% | remaining binding at 10 µM [12, 18]: 99% | percent of control binding at 10 µM [11, 18]: 99%
Compound: Cn1ncnc1[C@H]1c2n[nH]c(=O)c3cc(F)cc(c23)N[C@@H]1c1ccc(F)cc1 [Talazoparib]
